Measured values: US12485117B2, “Compositions and methods for activating signaling through the CB1 cannabinoid receptor for treating and preventing diseases and disorders characterized by abnormal cellular accumulation of sphingolipids such as sphingomyelin” (Wylder Nation Foundation, priority 2018, dated 2025)

How the values were obtained:
pediatric ASMD patient = experiment: Single patient preliminary clinical trial: liver enzymes ALT and AST; format: in vivo, human
From the text: Based on the compelling safety and efficacy data from the ASMko mouse model, we submitted an expanded access request to the Food and Drug Administration for a single patient preliminary clinical trial to assess the effect of PF-04457845 administration to a single pediatric ASMD patient. The FDA approved the trial, and it is presently ongoing. The patient received their first does of PF-04457845 (which is being administered via NG-tube delivery) nearly one year ago now, and the patient will continue to be monitored for improvement in ASMD-related symptoms and/or markers.
Although clinical trial data is not available to us yet, it is worth noting as per the normal standard of care for this patient, weekly or biweekly monitoring of liver enzymes alanine aminotransferase (ALT) and aspartate transaminase (AST) has been ongoing since before initiation of the trial and these analyses are ongoing. Elevated blood levels of AST and ALT are seen in 50%-75% of ASMD patients (McGovern M, et al., Orphanet J Rare Dis. 2017; 12: 41) and are indicative of liver damage caused by the progression of the disease. […] Moreover, ALT/AST ratios appear stable.

[1] = cited from earlier work
anandamide levels = experiment: Anandamide levels by mass spectrometry in the hippocampus; format: in vivo, mouse; conditions: 0.3 mg/kg every three days
Procedure: FIGS. 18A-18B show hippocampal anandamide and CB1 levels in wt and ASMko mice treated or not treated with PF-04457845. […] Graphs show mean±SEM CB1 intensity in arbitrary units (n=5, *p<0.05).
(§1) Treatment started at 7 weeks of age and continued for 8 weeks. PF-04457845 was dissolved in 0.9% NaCl and delivered through oral gavage at a dose of 0.3 mg/kg every three days. We chose this dose based on the studies published by Ahn et al., (J Pharm Exp Ther 2011). Control groups received same volume of 0.9% NaCl without PF-04457845.
PF-04457845 inhibits the enzyme (FAAH) that hydrolyzes the endocannabinoid anandamide, which in turn activates the CB1 receptor leading to neutral sphingomyelinase activation and sphingomyelin hydrolysis. To determine the effects of PF-04457845 treatment in the endocannabinoid system we analyzed anandamide and CB1 levels in the brain of PF-04457845 treated and non-treated mice.

[2] = cited from earlier work; remark: listed apart in the source
[3] = in vivo; cited from earlier work
wt and ASMko mice [4] = experiment: Accelerating Rotarod (motor abilities); format: in vivo, mouse; conditions: 0.3 mg/kg every three days
Procedure: as §1
Cerebellar dependent motor abilities were monitored in an accelerating Rotarod (FIG. 12) on which the mice were trained for two days at a constant speed: the first day four times at 4 rpm for 1 min and the second day four times at 8 rpm for 1 min. On the third day, the Rotarod was set to progressively accelerate from 4 to 40 rpm for 5 min and the mice were tested four times. During the accelerating trials, the latency to fall from the rod was measured. Non-treated ASMko mice spent less time on the rod in the four trials than wt mice, indicative of impaired motor abilities.

wt and ASMko mice [5] = experiment: Elevated Plus Maze test; format: in vivo, mouse; conditions: 0.3 mg/kg every three days
Procedure: FIGS. 13A-13C show the effect of PF-04457845 treatment on various behavioral functions. […] (n=14; **p<0.01, *p<0.05).
as §1
Mood alterations were monitored by the Tail Suspension Test (FIG. 13B) and by the Elevated Plus Maze test (FIG. 13C) that give an idea of depressive state and anxiety, respectively. […] PF-04457845 treatment had no effect in the behavior of wt mice.

wt and ASMko mice [6] = experiment: Sphingomyelin levels by enzymatic assay in tissue extracts after 8-week treatment; format: in vivo, mouse; conditions: 0.3 mg/kg every three days, 8 weeks
Procedure: as §1
Sphingomyelin levels were measured by enzymatic assays in extracts of different brain areas and in liver, spleen, and lung (FIG. 14).

ASMko cultured neurons = experiment: TUNEL assay of neuronal death in ASMko cultured neurons; format: cell-based, mouse; conditions: 50 μM for 1 hour
Procedure: FIG. 10B is a graph showing mean±SEM percentage of apoptotic cells, measured by TUNEL assay, with respect to the positive control in which the cells were treated with H202.
The percentage of dying neurons showing DNA fragmentation was 5-8% in the treated ASMko cultures similar to the non-treated ones.

microglia = experiment: Microglia number and morphology by iba-1 immunofluorescence after 8-week treatment; format: in vivo, mouse; conditions: 0.3 mg/kg every three days
Procedure: Representative images of microglia stained for iba-1 (green) in the cerebellum, hippocampus and cortex of wt and ASMko mice treated or not with PF-04457845. […] Graphs show mean±SEM microglia number and cell body area (n=7, **p<0.01, *p<0.05).
as §1
Brain inflammation was determined by analysis of glial cells in the cerebellum, hippocampus and cortex. The number and morphology of microglia was analyzed by immunofluorescence staining with the marker iba-1 (FIG. 16). […] PF-04457845 treatment had no effect in microglia of wt mice. The amount of astrocytes was analyzed by immunofluorescence with the marker GFAP (FIG. 17). […] PF-04457845 treatment had no effect in astrocytes of wt mice (FIG. 17).

[7] = about one year of treatment via NG-tube, preliminary

SMILES: O=C(Nc1cccnn1)N1CCC(=Cc2cccc(Oc3ccc(C(F)(F)F)cn3)c2)CC1 [PF-04457845]
- ALT/AST ratios (pediatric ASMD patient; about one year of treatment): stable
- ALT, current value relative to pre-treatment (pediatric ASMD patient; [7]): approximately half
- AST, current value relative to pre-treatment (pediatric ASMD patient; [7]): approximately half
- tolerability (pediatric ASMD patient; about one year of treatment, preliminary): well tolerated without signs of liver toxicity
- tolerability of much higher doses in healthy humans ([1]; Li et al., 2011): well tolerated
- safety in healthy humans ([1]; Ling et al., BJCP 2011): safety in healthy humans has been already demonstrated
- dose sufficient, well tolerated and providing maximal effects on FAAH activity and fatty acid amide elevation ([1]; once daily, healthy humans, Li et al., Br J Clin Pharmacol 2011): 0.5 mg
- increase of anandamide levels in the hippocampus (anandamide levels; ASMko mice): 1.96 fold
- increase of anandamide levels in the hippocampus (anandamide levels; wt mice): 2.09 fold
- doses that seem to be safe in rodents ([2]; Ahn et al., 2011): up to 10 mg/kg
- selectivity ([2]; Ahn et al., J Pharm Exp Ther 2011): exceptional selectivity
- duration of action in vivo ([2]; rodents, Ahn et al. 2011): long duration of action
- pharmacokinetic properties ([2]; rodents, Ahn et al. 2011): optimal pharmacokinetic properties
- brain blood barrier crossing [3]: can cross the brain blood barrier
- time on the rod (Rotarod) (wt and ASMko mice [4]; ASMko mice, second, third and fourth trials): significantly improved the time on the rod
- time on the rod (Rotarod), treated versus non-treated (wt and ASMko mice [4]; wt mice): No differences
- behavior in Elevated Plus Maze test (anxiety) (wt and ASMko mice [5]; ASMko mice): normalized
- behavior in Elevated Plus Maze test (wt and ASMko mice [5]; wt mice): no effect
- sphingomyelin levels in cerebellum (wt and ASMko mice [6]; ASMko mice): significant reduction of sphingomyelin
- sphingomyelin levels in cortex (wt and ASMko mice [6]; ASMko mice): significant reduction of sphingomyelin
- sphingomyelin levels in hippocampus (wt and ASMko mice [6]; ASMko mice): significant reduction of sphingomyelin
- sphingomyelin levels in liver (wt and ASMko mice [6]; ASMko mice): significant reduction of sphingomyelin
- sphingomyelin levels in lung (wt and ASMko mice [6]; ASMko mice): non-statistically significant trend towards a decrease
- sphingomyelin levels in spleen (wt and ASMko mice [6]; ASMko mice): significant reduction of sphingomyelin
- sphingomyelin levels in tissues (wt and ASMko mice [6]; wt mice): did not alter sphingomyelin levels
- neuronal death as assessed by TUNEL (ASMko cultured neurons): did not induce neuronal death
- microglia amoeboid morphology in the hippocampus and cerebellum (microglia; ASMko mice): normalized to a significant extent
- microglia morphology in cerebellum (iba-1) (microglia; ASMko mice): normalized their morphology
- microglia number in cerebellum (iba-1) (microglia; ASMko mice): reduced microglia number
- microglia (microglia; wt mice): no effect
